# According to patent US9695155B2, “Herbicidal substituted pyrimidinyloxy benzene compounds” (E. I. DU PONT DE NEMOURS AND COMPANY, priority 2013, dated 2017):
# Tests used:
# [1] = test system: corn; test: Test A postemergence; format: in vivo, Zea mays; conditions: 0 to 100 scale where 0 is no effect and 100 is complete control; for Corn plant response rating: 125 g ai/ha; for Plant response rating, Corn: 500 g ai/ha
# Outline: (§1)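 Scoring: eye-based comparison with untreated controls, 0 for no effect through 100 for complete control, at about day 10. Treatments: directed soil spray preemergence; foliar spray postemergence on 2–10 cm plants at the one- to two-leaf stage. Medium: loam soil with sand.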
# [2] = test system: ragweed; test: Test C postemergence; format: in vivo, Ambrosia elatior; conditions: for Ragweed plant response rating: 31 g ai/ha; for Ragweed plant response rating / Plant response rating, Ragweed: scale 0 to 100 (0 no effect, 100 complete control)
# Outline: (§2)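 Visual injury score versus untreated controls, 0 = no effect, 100 = complete control, taken 13 to 15 days after treatment in the greenhouse. Pre-emergence pots held loam/sand; post-emergence plants grew in sphagnum peat/vermiculite mix and were sprayed at the 1- to 4-leaf stage.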
# [3] = test system: galium; test: Test C postemergence; format: in vivo, Galium aparine; conditions: for Galium plant response rating: 31 g ai/ha; for Galium plant response rating / Plant response rating, Galium: scale 0 to 100 (0 no effect, 100 complete control)
# Outline: as §2
# [4] = test system: large (Lg) crabgrass; test: Test A preemergence; format: in vivo, Digitaria sanguinalis; conditions: for Crabgrass, Large plant response rating (0 to 100 scale): 125 g ai/ha; for Crabgrass, Large plant response rating: 500 g ai/ha, 0 to 100 scale where 0 is no effect and 100 is complete control
# Outline: as §1
# [5] = test system: johnsongrass; test: Test C preemergence; format: in vivo, Sorghum halepense; conditions: for Johnsongrass plant response rating: preemergence; for Plant response rating, Johnsongrass: Preemergence, 62 g ai/ha, scale 0 to 100, 0 no effect, 100 complete control
# Outline: as §2
# [6] = test system: wheat; test: Test A postemergence; format: in vivo, Triticum aestivum; conditions: 0 to 100 scale where 0 is no effect and 100 is complete control; for Wheat plant response rating: 125 g ai/ha; for Plant response rating, Wheat: 500 g ai/ha
# Outline: as §1
# [7] = test system: pigweed; test: Test A preemergence; format: in vivo, Amaranthus retroflexus; conditions: for Pigweed plant response rating (0 to 100 scale): 125 g ai/ha; for Pigweed plant response rating: 500 g ai/ha, 0 to 100 scale where 0 is no effect and 100 is complete control
# Outline: as §1
# [8] = test system: oilseed rape; test: Test C postemergence; format: in vivo, Brassica napus; conditions: for Oilseed Rape plant response rating: 31 g ai/ha; for Oilseed Rape plant response rating / Plant response rating, Oilseed Rape: scale 0 to 100 (0 no effect, 100 complete control)
# Outline: as §2
# [9] = test system: giant foxtail; test: Test C preemergence; format: in vivo, Setaria faberii; conditions: for Foxtail, Giant plant response rating: preemergence; for Plant response rating, Foxtail, Giant: Preemergence, 62 g ai/ha, scale 0 to 100, 0 no effect, 100 complete control
# Outline: as §2
# [10] = test system: pigweed; test: Test C postemergence; format: in vivo, Amaranthus retroflexus; conditions: for Pigweed plant response rating: 31 g ai/ha; for Pigweed plant response rating / Plant response rating, Pigweed: scale 0 to 100 (0 no effect, 100 complete control)
# Outline: as §2
# [11] = test system: velvetleaf; test: Test A preemergence; format: in vivo, Abutilon theophrasti; conditions: for Velvetleaf plant response rating (0 to 100 scale): 125 g ai/ha; for Velvetleaf plant response rating: 500 g ai/ha, 0 to 100 scale where 0 is no effect and 100 is complete control
# Outline: as §1
# [12] = test system: waterhemp; test: Test C preemergence; format: in vivo, Amaranthus rudis; conditions: for Waterhemp plant response rating: preemergence; for Plant response rating, Waterhemp: Preemergence, 62 g ai/ha, scale 0 to 100, 0 no effect, 100 complete control
# Outline: as §2
# [13] = test system: morningglory; test: Test A preemergence; format: in vivo, Ipomoea spp.; conditions: for Morningglory plant response rating (0 to 100 scale): 125 g ai/ha; for Morningglory plant response rating: 500 g ai/ha, 0 to 100 scale where 0 is no effect and 100 is complete control
# Outline: as §1
# [14] = test system: ragweed; test: Test C preemergence; format: in vivo, Ambrosia elatior; conditions: for Ragweed plant response rating: preemergence; for Plant response rating, Ragweed: Preemergence, 62 g ai/ha, scale 0 to 100, 0 no effect, 100 complete control
# Outline: as §2
# [15] = test system: soybean; test: Test C preemergence; format: in vivo, Glycine max; conditions: for Soybean plant response rating: preemergence; for Plant response rating, Soybean: Preemergence, 62 g ai/ha, scale 0 to 100, 0 no effect, 100 complete control
# Outline: as §2
# [16] = test system: velvetleaf; test: Test C postemergence; format: in vivo, Abutilon theophrasti; conditions: for Velvetleaf plant response rating: 31 g ai/ha; for Velvetleaf plant response rating / Plant response rating, Velvetleaf: scale 0 to 100 (0 no effect, 100 complete control)
# Outline: as §2
# [17] = 16 g ai/ha, postemergence, 0 is no effect, 100 is complete control
# [18] = postemergence, visual rating, 13 to 15 days
# [19] = 125 g ai/ha, postemergence, visual rating
# [20] = Postemergence, 62 g ai/ha, 13 to 15 days
# [21] = 16 g ai/ha, scale 0 to 100 (0 no effect, 100 complete control)
# [22] = 125 g ai/ha, scale 0 (no effect) to 100 (complete control)
# [23] = 250 g ai/ha, scale 0 (no effect) to 100 (complete control)
smiles,measurement,setting,value
N#Cc1cnn(-c2c(Oc3ncc(Cl)cn3)cccc2C(F)F)c1 [Compound 236],Corn plant response rating,[1],70
same,"Plant response rating, Corn",[1],100
same,"Plant response rating (0 to 100), Ragweed",[2]; [17],10
same,Ragweed plant response rating,[2]; [18],15
same,"Plant response rating, Ragweed",[2]; [19],75
same,"Plant response rating, Ragweed",[2]; [20],40
same,"Plant response rating (0 to 100), Galium",[3]; [17],60
same,Galium plant response rating,[3]; [18],75
same,"Plant response rating, Galium",[3]; [19],85
same,"Plant response rating, Galium",[3]; [20],80
same,"Crabgrass, Large plant response rating (0 to 100 scale)",[4],100
same,"Crabgrass, Large plant response rating",[4],100
same,Johnsongrass plant response rating,[5]; [21],5
same,Johnsongrass plant response rating,[5]; [22],85
same,"Plant response rating, Johnsongrass",[5],60
same,Wheat plant response rating,[6],50
same,"Plant response rating, Wheat",[6],100
same,Pigweed plant response rating (0 to 100 scale),[7],100
same,Pigweed plant response rating,[7],100
same,"Plant response rating (0 to 100), Oilseed Rape",[8]; [17],30
same,Oilseed Rape plant response rating,[8]; [18],10
same,"Plant response rating, Oilseed Rape",[8]; [19],65
same,"Plant response rating, Oilseed Rape",[8]; [20],30
same,"Foxtail, Giant plant response rating",[9]; [21],35
same,"Foxtail, Giant plant response rating",[9]; [22],100
same,"Plant response rating, Foxtail, Giant",[9],100
same,"Plant response rating (0 to 100), Pigweed",[10]; [17],60
same,Pigweed plant response rating,[10]; [18],90
same,"Plant response rating, Pigweed",[10]; [19],95
same,"Plant response rating, Pigweed",[10]; [20],90
same,Velvetleaf plant response rating (0 to 100 scale),[11],100
same,Velvetleaf plant response rating,[11],100
same,Waterhemp plant response rating,[12]; [21],98
same,Waterhemp plant response rating,[12]; [22],100
same,"Plant response rating, Waterhemp",[12],98
same,Morningglory plant response rating (0 to 100 scale),[13],30
same,Morningglory plant response rating,[13],100
same,Ragweed plant response rating,[14]; [21],15
same,Ragweed plant response rating,[14]; [22],90
same,"Plant response rating, Ragweed",[14],85
same,Soybean plant response rating,[15]; [21],35
same,Soybean plant response rating,[15]; [22],95
same,"Plant response rating, Soybean",[15],90
same,"Plant response rating (0 to 100), Velvetleaf",[16]; [17],55
same,Velvetleaf plant response rating,[16]; [18],65
same,"Plant response rating, Velvetleaf",[16]; [19],80
same,"Plant response rating, Velvetleaf",[16]; [20],85
N#Cc1cccc(Oc2ncc(Cl)cn2)c1-n1cc(I)cn1 [Compound 204],Corn plant response rating,[1],50
same,"Plant response rating, Corn",[1],60
same,Ragweed plant response rating,[2]; [18],25
same,"Plant response rating, Ragweed",[2]; [19],35
same,"Plant response rating (0 to 100), Ragweed","[2]; 250 g ai/ha, postemergence",75
same,"Plant response rating, Ragweed",[2]; [20],40
same,Galium plant response rating,[3]; [18],70
same,"Plant response rating, Galium",[3]; [19],75
same,"Plant response rating (0 to 100), Galium","[3]; 250 g ai/ha, postemergence",100
same,"Plant response rating, Galium",[3]; [20],75
same,"Crabgrass, Large plant response rating (0 to 100 scale)",[4],100
same,"Crabgrass, Large plant response rating",[4],100
same,Johnsongrass plant response rating,[5]; [22],95
same,Johnsongrass plant response rating,[5]; [23],98
same,"Plant response rating, Johnsongrass",[5],80
same,Wheat plant response rating,[6],40
same,"Plant response rating, Wheat",[6],70
same,Pigweed plant response rating (0 to 100 scale),[7],100
same,Pigweed plant response rating,[7],100
same,Oilseed Rape plant response rating,[8]; [18],40
same,"Plant response rating, Oilseed Rape",[8]; [19],85
same,"Plant response rating (0 to 100), Oilseed Rape","[8]; 250 g ai/ha, postemergence",75
same,"Plant response rating, Oilseed Rape",[8]; [20],70
same,"Foxtail, Giant plant response rating",[9]; [22],100
same,"Foxtail, Giant plant response rating",[9]; [23],100
same,"Plant response rating, Foxtail, Giant",[9],98
same,Pigweed plant response rating,[10]; [18],80
same,"Plant response rating, Pigweed",[10]; [19],95
same,"Plant response rating (0 to 100), Pigweed","[10]; 250 g ai/ha, postemergence",98
same,"Plant response rating, Pigweed",[10]; [20],95
same,Velvetleaf plant response rating (0 to 100 scale),[11],80
same,Velvetleaf plant response rating,[11],100
same,Waterhemp plant response rating,[12]; [22],100
same,Waterhemp plant response rating,[12]; [23],98
same,"Plant response rating, Waterhemp",[12],100
same,Morningglory plant response rating (0 to 100 scale),[13],90
same,Morningglory plant response rating,[13],90
same,Ragweed plant response rating,[14]; [22],5
same,Ragweed plant response rating,[14]; [23],85
same,"Plant response rating, Ragweed",[14],5
same,Soybean plant response rating,[15]; [22],65
same,Soybean plant response rating,[15]; [23],80
same,"Plant response rating, Soybean",[15],35
same,Velvetleaf plant response rating,[16]; [18],35
same,"Plant response rating, Velvetleaf",[16]; [19],60
same,"Plant response rating (0 to 100), Velvetleaf","[16]; 250 g ai/ha, postemergence",70
same,"Plant response rating, Velvetleaf",[16]; [20],40
